From US20240269295A1, “C-MET TARGETED APTAMER DRUG CONJUGATE AND METHOD FOR TREATING TUMOR” (Hangzhou Institute of Medicine, Chinese Academy of Sciences, priority 2023, published 2024) come the findings set out here.

A word on the Kd: it is the free concentration of one partner at which half of the binding sites on the other are occupied at equilibrium, for simple one-to-one binding. A high value points to lower affinity.

The test system of data set [1] is large triple-negative breast cancer PDX model tumors. Kind of data set: Experiment against large tumors in vivo (triple-negative breast cancer PDX). Details: species or system mice. To be noted: tumor 400-500 mm^3; tail vein, 20 mg/kg once every seven days, two times. As to the method:
Six mice with a tumor size of 400-500 mm^3 in a triple-negative breast cancer PDX model were randomly divided into two groups. In the experiment, the two groups were injected with a clinical first-line chemotherapy drug Docetaxel, and a c-Met targeted aptamer drug conjugate c-Met-ApDC through the tail vein, respectively at a dosage of 20 mg/kg Docetaxel (administrated once every seven days, for two times in total) or 0.36 mg/kg equivalent of MMAE (administrated once every four days, for three times in total). The weights of the mice, the lengths of tumors (a), and the widths of tumors (b) were measured and recorded at each injection. The calculation formula of tumor volume (V) was: V=(a×b^2)/2. The tumor volume exceeding 1,500 mm^3 or the weight loss exceeding 15% was taken as an endpoint of the experiment. The mice were euthanized, and the experiment was terminated. […] On about seven days of administration, the tumor volume in the group administrated with the chemotherapeutic drug began to increase, while the tumor of the group administrated with the reagent of the present invention began to decrease.

The test system is the same in data set [2]. Kind of data set: Experiment against large tumors in vivo after multiple times of administration. Details: species or system mice. To be noted: Docetaxel alone, 20 mg/kg once every seven days, two times. As to the method:
Six mice with a tumor size of 400-500 mm^3 in a triple-negative breast cancer PDX model were randomly divided into two groups. In the experiment, the two groups were injected with a clinical first-line chemotherapy drug, Docetaxel and a c-Met targeted aptamer drug conjugate c-Met-ApDC through the tail vein, respectively, at a dosage of 20 mg/kg Docetaxel (administrated once every seven days, for two times in total) or 0.36 mg/kg equivalent of MMAE (administrated once every four days, for three times in total).
The weights of the mice, the lengths of tumors (a), and the widths of tumors (b) were measured and recorded at each injection. The calculation formula of tumor volume (V) was: V=(a×b^2)/2. The tumor volume exceeding 1,500 mm^3 or the weight loss exceeding 15% was taken as an endpoint of the experiment. The mice were euthanized, and the experiment was terminated. In the group administrated with Docetaxel, 0.36 mg/kg equivalent of MMAE was injected into the mice through the tail vein once every four days continuously for three times after the tumor volume exceeded 1,500 mm^3. […] It was almost less than 200 mm^3 after 44 days.

In data set [3] the target is T1, c-Met (hepatocyte growth factor receptor) (UniProt P08581 P08581:25-932). Kind of data set: SPR; concentrations 100-500 nM. As to the method: (§1) The specific experimental process was as follows: the c-Met protein-bound aptamer CLN0004-52 (sequence SEQ: ID2: […]) reported in the literature was selected and modified with a mercapto group at the 3-terminal and then conjugated with vcMMAE to construct the c-Met targeted aptamer drug conjugate CLN0004-52-MMAE. The affinity of CLN0004-52-MMAE and SL1-MMAE with a c-Met protein was characterized by surface plasmon resonance spectroscopy. The binding forces of two c-Met ApDCs were determined at concentrations of 100, 200, 300, 400, and 500 nM. […] Strong affinity stated that it could bind with c-Met more strongly, enhancing the therapeutic effect.
T1 sequence (P08581 25-932, one chain of several): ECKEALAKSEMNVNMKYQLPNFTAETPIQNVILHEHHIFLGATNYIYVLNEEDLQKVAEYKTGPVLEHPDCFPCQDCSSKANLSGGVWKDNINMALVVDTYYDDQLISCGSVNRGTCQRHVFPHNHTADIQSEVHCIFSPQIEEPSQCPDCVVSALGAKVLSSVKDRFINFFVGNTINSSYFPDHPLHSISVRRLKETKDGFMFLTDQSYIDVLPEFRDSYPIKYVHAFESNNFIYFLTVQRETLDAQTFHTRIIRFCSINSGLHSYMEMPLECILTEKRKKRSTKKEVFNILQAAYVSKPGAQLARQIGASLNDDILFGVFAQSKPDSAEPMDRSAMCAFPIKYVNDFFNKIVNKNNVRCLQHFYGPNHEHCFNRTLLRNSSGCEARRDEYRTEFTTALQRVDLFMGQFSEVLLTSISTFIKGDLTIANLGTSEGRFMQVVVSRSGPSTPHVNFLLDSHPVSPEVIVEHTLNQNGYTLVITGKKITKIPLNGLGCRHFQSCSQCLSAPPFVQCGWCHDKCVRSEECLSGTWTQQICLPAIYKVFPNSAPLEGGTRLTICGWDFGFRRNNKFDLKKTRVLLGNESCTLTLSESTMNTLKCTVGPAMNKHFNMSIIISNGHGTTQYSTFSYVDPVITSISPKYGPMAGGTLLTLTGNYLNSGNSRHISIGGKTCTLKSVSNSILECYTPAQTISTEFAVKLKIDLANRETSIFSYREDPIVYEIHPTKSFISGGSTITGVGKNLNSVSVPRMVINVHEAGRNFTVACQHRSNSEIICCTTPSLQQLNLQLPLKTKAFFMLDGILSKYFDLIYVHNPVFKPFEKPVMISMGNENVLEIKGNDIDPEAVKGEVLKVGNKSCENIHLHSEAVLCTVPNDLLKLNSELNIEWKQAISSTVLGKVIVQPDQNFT
On the technique in general: SPR reads the build-up and loss of mass on a sensor chip optically.

In data set [4] the target is T1, c-Met (hepatocyte growth factor …). The experiment in a line: SPR; concentrations 100-500 nM; unit μm [sic]. The protocol: as §1

As to `CC(=O)O[C@@]12CO[C@@H]1C[C@H](O)[C@@]1(C)C(=O)[C@H](O)C3=C(C)[C@@H](OC(=O)[C@H](O)[C@@H](NC(=O)OC(C)(C)C)c4ccccc4)C[C@@](O)([C@@H](OC(=O)c4ccccc4)[C@H]21)C3(C)C` [Docetaxel], in data set [1], the “inhibitory effect on large tumors” value was “no apparent inhibitory effect” and the tumor volume increase is on record as 3 times the volume. Also, the tumor volume course result in data set [2] is given as “gradually increased”.
Consider ATCAGGCTGGATGGTAGCTCGGTCGGGGTGGGTGGGTTGGCAAGTCTGAT (ssDNA, 3'-thiol conjugated to maleimide vcMMAE) [SL1-MMAE (c-Met-ApDC)], for which binding in data set [3] was put at a Kd of 0.0775 µM. That is a double-digit nanomolar value.

B1: CLN0004-52-MMAE (ssDNA)
DNA: GAGTGCGTAATGGTACGATTTGGGAAGTGGCTTGGGGTGGGATTAGTTTTGG
modifications: 3'-thiol conjugated to maleimide vcMMAE
Molecule B1 yielded a dissociation constant Kd in data set [4] of 21.5 µM.
